We go through 3 compounds from ChEMBL document CHEMBL1129018, “Asymmetric synthesis of cis-()-(2R4S)-4-(phosphonomethyl)-2-piperidinecarboxylic acid, a potent NMDA receptor antagonist” (Bioorg Med Chem Lett, 1996).

The structures appear in SMILES notation.

The assay in a line: Compound was tested for binding activity against N-methyl-D-aspartic acid(NMDA) receptor in rat brain crude synaptic membranes. It is filed as cell membranes.
A word on the IC50: it is the concentration at which inhibition is half-maximal. Low readings indicate greater potency in that assay, high ones weaker potency in that assay. With `O=C(O)[C@@H]1C[C@H](CP(=O)(O)O)CCN1` (stereo in doubt; form 1) [SELFOTEL], the IC50 was determined as 69 nM.
The same measure for `O=C(O)[C@@H]1C[C@H](CP(=O)(O)O)CCN1` (stereo in doubt; form 2) [SELFOTEL]: 29 nM; for `O=C(O)[C@@H]1C[C@H](CP(=O)(O)O)CCN1` (stereo in doubt) [SELFOTEL]: 10000 nM.
